“Also recorded” adds a separate entry of the source. Where two headings read alike, the source gives them in different places. Marks after values point to notes of the source that are not given here.
Columns and labels:
hemoglobin (Hb) = experiment: Blood hemoglobin (Hb) after intra-amniotic administration; format: in vivo, Gallus gallus; settings: intra-amniotic 1 mL/egg on day 17; blood at hatch (day 21); mean ± SEM
Experimental: (§1) The pure resveratrol and pterostilbene were individually diluted in 18 MΩ H2O. The intra-amniotic administration followed the methodology previously described. On the 17th day of embryonic development, the eggs with viable embryos (n=60) were randomly allocated into 6 groups (n=10) with a similar weight frequency distribution. For the intra-amniotic treatment, 1 mL of solution per egg was injected into the amniotic fluid (via candling) with the aid of a 21-gauge needle. After the procedure, the injection sites were sealed with cellophane tape, and the eggs were distributed into six groups: (1) no injection; (2) 18 MΩ H2O; (3) 5% inulin; (4) 5% resveratrol; (5) 5% pterostilbene; and (6) synergistic: 4.75% resveratrol and 0.25% pterostilbene. […] The eggs were equally distributed in each incubator location to reduce possible allocation bias. Upon hatching (21 days), the hatchlings were euthanized by CO2 exposure, and the blood, liver, heart, pectoral muscle, small intestine and cecum were obtained.
Blood was collected using micro-hematocrit heparin-coated capillary tubes (Fisher Scientific, Waltham, MA, USA). The hemoglobin (Hb) concentration was assessed spectrophotometrically using the QuantiChrom™ Hb Assay (DIHB-250, BioAssay Systems, Hayward, CA, USA) and according to specific instructions.

[1] = Fe and Zn content in the serum and liver samples; format: in vivo, Gallus gallus; settings: intra-amniotic 1 mL/egg on day 17, at hatch, mean ± SEM, n=8
Experimental: as §1
The serum (50 μL) and liver (0.5 g) samples were mixed with 3.0 mL of a 60:40 (v/v) solution of nitric acid (HNO3) and perchloric acid (HClO4) and incubated overnight. After this, the samples were heated for 2 hours at 120° C. and added to 0.25 mL of 40 μg/g yttrium (internal standard), and the block temperature was increased to 145° C. for 2 h and then 190° C. for 10 min. At the end of these procedures, the samples were cooled, diluted to a total volume of 20 mL, mixed and transferred into autosampler tubes for analysis (inductively coupled plasma atomic emission spectrometer) (Thermo, Franklin, MA, USA).

[2] = Body weight, cecum weight and cecum:body weight ratio; format: in vivo, Gallus gallus; settings: intra-amniotic 1 mL/egg on day 17; at hatch (day 21); mean ± SEM, n=8
Experimental: as §1

[3] = Glycogen in pectoral muscle; format: in vivo, Gallus gallus; settings: intra-amniotic 1 mL/egg on day 17, at hatch, mean ± SEM, n=8
Experimental: as §1

Liver Ferritin = experiment: Liver ferritin; format: in vivo, Gallus gallus; settings: intra-amniotic 1 mL/egg on day 17, at hatch, mean ± SEM, n=5
Experimental: as §1

[4] = system: duodenal tissue (villi, crypts, goblet cells); experiment: Morphometric examination of duodenal tissue; format: in vivo, Gallus gallus; settings: intra-amniotic 1 mL/egg on day 17, at hatch, mean ± SEM, n=5; for Depth of Crypts (μm) / Mucus Layer Width (μm) / Villus Diameter (μm) / Villus Length (μm): duodenum; for Crypt Goblet Cell Number / Goblet Cell Diameter (μM) / Villus Goblet Cell Type Number, Acidic / Villus Goblet Cell Type Number, Mixed / Villus Goblet Cell Type Number, Neutral: small intestine
Experimental: as §1
Villus epithelium analysis was conducted as previously published. The duodenal samples were soaked in buffered formaldehyde (4% (v/v)), dehydrated, cleared and embedded in paraffin. Numerous sections were cut with a thickness of 5 μm and put on slides. The sections were deparaffinized in xylene, after which they were rehydrated in a series of graded alcohol. Finally, the slides were stained with Alcian Blue-periodic acid-Schiff and investigated under a light microscopy. The variables were assessed (light microscope, EPIX XCAP software, standard version, Olympus, Waltham, MA, USA) for the following: villus length, villus diameter, depth of crypts, goblet cell diameter, crypt goblet cell number and villus goblet cells type number (acidic, neutral or mixed). Four segments for each biological sample and five biological samples per treatment group were examined. The goblet cells were enumerated at 10 villi/sample, and the means were calculated for statistical analysis.

[5] = absorption in the gut lumen, literature refs 11, 12 (Kapetanovic et al.; Walle), cited from earlier work
cecal microbiome = experiment: 16S rRNA gene sequencing of the cecal microbiota; format: in vivo, Gallus gallus; settings: cecal content at hatch, n=5; 5% inulin vs all other experimental groups (p<0.01); 5% pterostilbene vs 18 MΩ H2O control (p<0.05); stilbene groups among each other
Experimental: as §1
As was formerly described, cecal samples were used to extract microbial genomic DNA (PowerSoil DNA isolation kit, MoBio Laboratories Ltd., Carlsbad, CA, USA). […] The PCR products were purified (Beckman Coulter, Atlanta, GA, USA) and quantified (Quant-iT PicoGreen dsDNA quantitation kit, Invitrogen, Carlsbad, CA, USA). […]
The 16S rRNA gene sequence analysis was performed using QIIME2 as previously described. The sequence reads were demultiplexed by per-sample barcodes, and the Divisive Amplicon Denoising Algorithm (DADA2) was used to correct the Illumina-sequenced amplicon read errors. […] The alpha and β diversity were calculated from samples containing at least 9.800 sequences. The alpha diversity parameter, a measure of the richness of the bacterial community, was calculated using the Shannon Index, and the beta diversity was assessed by a Jaccard similarity distance matrix. […]
The values in this paper were expressed as means and standard errors of the means (SEM). […] The results were analyzed by Analysis of Variance (ANOVA). […]

Row | Compound | Hb (g/dL) (hemoglobin (Hb)) | Liver Iron (μg/g) [1] | Liver Zinc (μg/g) [1] | Serum Iron (μg/g) [1] | Serum Zinc (μg/g) [1] | Body Weight Average (g) [2] | Cecum Weight Average (g) [2] | Cecum:Body Weight Ratio [2] | Glycogen (mg/g) [3] | Liver Ferritin (A.U.) (Liver Ferritin) | Depth of Crypts (μm) [4] | Mucus Layer Width (μm) [4] | Villus Diameter (μm) [4] | Villus Length (μm) [4] | Crypt Goblet Cell Number [4] | Goblet Cell Diameter (μM) [4] | Villus Goblet Cell Type Number, Acidic [4] | Villus Goblet Cell Type Number, Mixed [4] | Villus Goblet Cell Type Number, Neutral [4] | other results
1 | COc1cc(/C=C/c2ccc(O)cc2)cc(OC)c1 [5% Pterostilbene, Pterostilbene] | 8.95 ± 0.77^a g/dL | 37.43 ± 1.52 ^ab μg/g | 14.43 ± 0.49 ^b μg/g | 2.94 ± 0.44 ^b μg/g | 1.33 ± 0.20 ^a μg/g | 46.7 ± 0.7^a g | 0.6 ± 0.1^a g | 0.013 ± 0.001^a | 0.033 ± 0.010^a mg/g | 1.011 ± 0.351^bc A.U. | 66.41 ± 1.19^a μm | 3.76 ± 0.10^e μm | 81.33 ± 4.95^a μm | 451.58 ± 11.21^b μm | 10.04 ± 0.18 ^c | 7.81 ± 0.07 ^b μM | 10.78 ± 0.22 ^ab | 0.28 ± 0.05 ^b | 0.00 ± 0.00 ^b | bioavailability [5]: 80%; bioavailability ([5]; listed as pterostilbenes): about 80%
2 | inulin [5% Inulin, reference compound] | 8.86 ± 0.69^a g/dL | 48.96 ± 4.39 ^a μg/g | 18.23 ± 0.88 ^ab μg/g | 2.76 ± 0.33 ^b μg/g | 0.97 ± 0.08 ^bc μg/g | 49.7 ± 0.9^a g | 0.6 ± 0.1^a g | 0.012 ± 0.001^a | 0.029 ± 0.005^a mg/g | 0.148 ± 0.005^c A.U. | 51.30 ± 1.07^b μm | 5.27 ± 0.13^c μm | 44.57 ± 0.79^d μm | 262.54 ± 3.76^d μm | 12.27 ± 0.33 ^a | 7.12 ± 0.06 ^d μM | 10.65 ± 0.25 ^ab | 0.02 ± 0.01 ^e | 0.00 ± 0.00 ^b | β diversity of the cecal microbiome (Jaccard distances), comparison between groups (cecal microbiome): statistical differences; also recorded: differed

Source: patent US20240148671A1, “METHODS FOR IMPROVING POULTRY HEALTH” (CORNELL UNIVERSITY, priority 2021, published 2024)
